According to patent US20170037028A1 (BAYER PHARMA AKTIENGESELLSCHAFT, priority 2013, published 2017):

The molecules below were run against T1, GLUT1 (Homo sapiens, UniProt P11166) (assay: Indirect measurement of GLUT1 activity by quantification of intracellular ATP levels (glucose induced ATP increase)). Conditions: DLD1 cells; 0.1 mM glucose, 1 μM Rotenone, 15 min; CellTiter-Glo ATP readout; IC50 values standardized to cytochalasin B IC50 values; read-out: IC50 regarding glucose induced ATP increase (GLUT1 inhibition).
T1 sequence (P11166 1-492): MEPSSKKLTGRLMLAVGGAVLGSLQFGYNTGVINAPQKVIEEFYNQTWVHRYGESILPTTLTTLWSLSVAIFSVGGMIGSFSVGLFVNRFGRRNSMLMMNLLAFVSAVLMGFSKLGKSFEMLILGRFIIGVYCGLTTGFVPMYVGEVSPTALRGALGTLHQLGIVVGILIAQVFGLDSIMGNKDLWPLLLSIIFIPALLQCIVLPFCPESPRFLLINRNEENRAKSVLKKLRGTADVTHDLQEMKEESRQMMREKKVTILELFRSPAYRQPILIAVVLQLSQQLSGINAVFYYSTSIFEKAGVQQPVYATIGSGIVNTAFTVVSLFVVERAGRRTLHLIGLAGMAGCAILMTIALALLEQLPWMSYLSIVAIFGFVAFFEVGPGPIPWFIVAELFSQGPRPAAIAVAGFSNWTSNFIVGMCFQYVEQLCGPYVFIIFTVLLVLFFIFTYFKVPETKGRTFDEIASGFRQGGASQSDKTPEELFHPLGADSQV
Type: cell-based
Design: endogenous in cells; host or cells: DLD1 or CHO-K1
How it was run: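 DLD1 or CHO-K1 cells were starved overnight in glucose-free medium with 1% FCS, then combined with an oxidative phosphorylation inhibitor. GLUT1 activity was read as glucose-induced ATP increase, GLUT2 as fructose-induced. Intracellular ATP was quantified by CellTiter-Glo luminescence.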

SMILES	IC50
Cc1c(NC(=O)c2cc(C(N)=O)nc3cc(F)cc(F)c23)c(C(F)(F)F)nn1Cc1ccc(C#N)cc1 [Example 243, N^4-[1-(4-cyanobenzyl)-5-methyl-3-(trifluoromethyl)-1H-pyrazol-4-yl]-5,7-difluoroquinoline-2,4-dicarboxamide]	0.5 nM
COc1ccc2nc(C(N)=O)cc(C(=O)Nc3c(C(F)(F)F)nn(Cc4ccc(C#N)cc4)c3C)c2c1 [Example 245, N^4-[1-(4-cyanobenzyl)-5-methyl-3-(trifluoromethyl)-1H-pyrazol-4-yl]-6-methoxyquinoline-2,4-dicarboxamide]	0.3 nM

Same assay, conditions: read-out: IC50 regarding glucose induced ATP increase (GLUT1 inhibition)

IC50	SMILES
1.1 nM	COc1ccc(Cn2nc(C)c(NC(=O)c3cc(C(N)=O)nc4ccccc34)c2C)cc1F [Example 238, N^4-[1-(3-fluoro-4-methoxybenzyl)-3,5-dimethyl-1H-pyrazol-4-yl]quinoline-2,4-dicarboxamide]
2.9 nM	COc1cc(C(=O)Nc2c(C)nn(Cc3ccc(OC)c(F)c3)c2C)c2ccccc2n1 [Example 239, N-[1-(3-fluoro-4-methoxybenzyl)-3,5-dimethyl-1H-pyrazol-4-yl]-2-methoxyquinoline-4-carboxamide]
1.1 nM	Cc1c(NC(=O)c2cc(C(N)=O)nc3c(F)cc(Cl)cc23)c(C(F)(F)F)nn1Cc1ccc(C#N)cc1 [Example 241, 6-chloro-N^4-[1-(4-cyanobenzyl)-5-methyl-3-(trifluoromethyl)-1H-pyrazol-4-yl]-8-fluoroquinoline-2,4-dicarboxamide]
1 nM	COc1cc2c(C(=O)Nc3c(C(F)(F)F)nn(Cc4ccc(C#N)cc4)c3C)cc(C(N)=O)nc2cc1F [Example 242, N^4-[1-(4-cyanobenzyl)-5-methyl-3-(trifluoromethyl)-1H-pyrazol-4-yl]-7-fluoro-6-methoxyquinoline-2,4-dicarboxamide]
17.6 nM	Cc1cccc2nc(C(N)=O)cc(C(=O)Nc3c(C(F)(F)F)nn(Cc4ccc(C#N)cc4)c3C)c12 [Example 244, N^4-[1-(4-cyanobenzyl)-5-methyl-3-(trifluoromethyl)-1H-pyrazol-4-yl]-5-methylquinoline-2,4-dicarboxamide]
2.6 nM	Cc1c(NC(=O)c2cc(C(N)=O)nc3cc(Cl)ccc23)c(C(F)(F)F)nn1Cc1ccc(C#N)cc1 [Example 246, 7-chloro-N^4-[1-(4-cyanobenzyl)-5-methyl-3-(trifluoromethyl)-1H-pyrazol-4-yl]quinoline-2,4-dicarboxamide]
4.9 nM	Cc1c(NC(=O)c2cc(C(N)=O)nc3c(F)cccc23)c(C(F)(F)F)nn1Cc1ccc(C#N)cc1 [Example 247, N^4-[1-(4-cyanobenzyl)-5-methyl-3-(trifluoromethyl)-1H-pyrazol-4-yl]-8-fluoroquinoline-2,4-dicarboxamide]
0.6 nM	Cc1c(NC(=O)c2cc(C(N)=O)nc3ccc(Cl)cc23)c(C(F)(F)F)nn1Cc1ccc(C#N)cc1 [Example 248, 6-chloro-N^4-[1-(4-cyanobenzyl)-5-methyl-3-(trifluoromethyl)-1H-pyrazol-4-yl]quinoline-2,4-dicarboxamide]
1 nM	Cc1c(NC(=O)c2cc(C(N)=O)nc3cccc(F)c23)c(C(F)(F)F)nn1Cc1ccc(C#N)cc1 [Example 249, N^4-[1-(4-cyanobenzyl)-5-methyl-3-(trifluoromethyl)-1H-pyrazol-4-yl]-5-fluoroquinoline-2,4-dicarboxamide]
3.6 nM	Cc1c(NC(=O)c2cc(C(N)=O)nc3ccc(Br)cc23)c(C(F)(F)F)nn1Cc1ccc(C#N)cc1 [Example 250]
1.2 nM	Cc1nn(Cc2ccc(C#N)cc2)c(C)c1NC(=O)c1cc(C(N)=O)nc2c(F)cc(Cl)cc12 [Example 252, 6-chloro-N^4-[1-(4-cyanobenzyl)-3,5-dimethyl-1H-pyrazol-4-yl]-8-fluoroquinoline-2,4-dicarboxamide]
0.5 nM	Cc1nn(Cc2ccc(C#N)cc2)c(C)c1NC(=O)c1cc(C(N)=O)nc2cc(F)cc(F)c12 [Example 253, N^4-[1-(4-cyanobenzyl)-3,5-dimethyl-1H-pyrazol-4-yl]-5,7-difluoroquinoline-2,4-dicarboxamide]

The remaining lines, values behind:

SMILES	IC50
Cc1nn(Cc2cccnc2C#N)c(C)c1NC(=O)c1cc(C(N)=O)nc2cc(F)c(F)cc12 [Example 220, N^4-{1-[(2-cyanopyridin-3-yl)methyl]-3,5-dimethyl-1H-pyrazol-4-yl}-6,7-difluoroquinoline-2,4-dicarboxamide]	6.4 nM
Cc1nn(Cc2ccccc2C#N)c(C)c1NC(=O)c1cc(C(N)=O)nc2ccc(F)cc12 [Example 221, N^4-[1-(2-cyanobenzyl)-3,5-dimethyl-1H-pyrazol-4-yl]-6-fluoroquinoline-2,4-dicarboxamide]	6.7 nM
Cc1nn(Cc2ncccc2C#N)c(C)c1NC(=O)c1cc(C(N)=O)nc2cc(F)c(F)cc12 [Example 222, N^4-{1-[(3-cyanopyridin-2-yl)methyl]-3,5-dimethyl-1H-pyrazol-4-yl}-6,7-difluoroquinoline-2,4-dicarboxamide]	7.1 nM
Cc1nn(Cc2cccnc2C#N)c(C)c1NC(=O)c1cc(C(N)=O)nc2ccccc12 [Example 223, N^4-{1-[(2-cyanopyridin-3-yl)methyl]-3,5-dimethyl-1H-pyrazol-4-yl}quinoline-2,4-dicarboxamide]	11.1 nM
Cc1nn(Cc2ccc(S(C)(=O)=O)cc2)c(C)c1NC(=O)c1cc(C(N)=O)nc2ccccc12 [Example 224, N^4-{3,5-dimethyl-1-[4-(methylsulfonyl)benzyl]-1H-pyrazol-4-yl}quinoline-2,4-dicarboxamide]	11.2 nM
Cc1nn(Cc2ccc(C#N)nc2)c(C)c1NC(=O)c1cc(C(N)=O)nc2ccccc12 [Example 225, N^4-{1-[(6-cyanopyridin-3-yl)methyl]-3,5-dimethyl-1H-pyrazol-4-yl}quinoline-2,4-dicarboxamide]	14 nM
COc1ccc(Cn2nc(C)c(NC(=O)c3cc(C(N)=O)nc4cc(F)c(F)cc34)c2C)cc1 [Example 226, 6,7-difluoro-N^4-[1-(4-methoxybenzyl)-3,5-dimethyl-1H-pyrazol-4-yl]quinoline-2,4-dicarboxamide]	4 nM
COc1ccc(Cn2nc(C)c(NC(=O)c3cc(C(N)=O)nc4ccc(F)cc34)c2C)cc1 [Example 227, 6-fluoro-N^4-[1-(4-methoxybenzyl)-3,5-dimethyl-1H-pyrazol-4-yl]quinoline-2,4-dicarboxamide]	4.6 nM
Cc1nn(Cc2ccc(C#N)cc2)c(C)c1NC(=O)c1cc(C(N)=O)nc2ccc(F)cc12 [Example 228, N^4-[1-(4-cyanobenzyl)-3,5-dimethyl-1H-pyrazol-4-yl]-6-fluoroquinoline-2,4-dicarboxamide]	4.6 nM
Cc1nn(Cc2ccc(F)cc2)c(C)c1NC(=O)c1cc(C(N)=O)nc2ccc(F)cc12 [Example 229, 6-fluoro-N^4-[1-(4-fluorobenzyl)-3,5-dimethyl-1H-pyrazol-4-yl]quinoline-2,4-dicarboxamide]	4.6 nM
Cc1nn(Cc2ccc(C#N)cc2)c(C)c1NC(=O)c1cc(C(N)=O)nc2cc(F)c(F)cc12 [Example 230, N^4-[1-(4-cyanobenzyl)-3,5-dimethyl-1H-pyrazol-4-yl]-6,7-difluoroquinoline-2,4-dicarboxamide]	5 nM
Cc1nn(Cc2ccc(S(C)(=O)=O)cc2)c(C)c1NC(=O)c1cc(C(N)=O)nc2cc(F)c(F)cc12 [Example 231, N^4-{3,5-dimethyl-1-[4-(methylsulfonyl)benzyl]-1H-pyrazol-4-yl}-6,7-difluoroquinoline-2,4-dicarboxamide]	5.8 nM
Cc1nn(Cc2ccccc2C#N)c(C)c1NC(=O)c1cc(C(N)=O)nc2ccccc12 [Example 232, N^4-[1-(2-cyanobenzyl)-3,5-dimethyl-1H-pyrazol-4-yl]quinoline-2,4-dicarboxamide]	7 nM
COc1ccc2nc(C3CC3)cc(C(=O)Nc3c(C)nn(Cc4ccc(F)cc4)c3C)c2c1 [Example 233, 2-cyclopropyl-N-[1-(4-fluorobenzyl)-3,5-dimethyl-1H-pyrazol-4-yl]-6-methoxyquinoline-4-carboxamide]	7.2 nM
Cc1nn(Cc2ncccc2C#N)c(C)c1NC(=O)c1cc(C(F)(F)F)nc2ccc(Br)cc12 [Example 234, 6-bromo-N-{1-[(3-cyanopyridin-2-yl)methyl]-3,5-dimethyl-1H-pyrazol-4-yl}-2-(trifluoromethyl)quinoline-4-carboxamide]	9.2 nM
Cc1nn(Cc2ccccc2C#N)c(C)c1NC(=O)c1cc(C(N)=O)nc2cc(F)c(F)cc12 [Example 235, N^4-[1-(2-cyanobenzyl)-3,5-dimethyl-1H-pyrazol-4-yl]-6,7-difluoroquinoline-2,4-dicarboxamide]	10.9 nM
COc1ccc(Cn2nc(C)c(NC(=O)c3cc(C(N)=O)nc4cc(F)c(F)cc34)c2C)cc1F [Example 236, 6,7-difluoro-N^4-[1-(3-fluoro-4-methoxybenzyl)-3,5-dimethyl-1H-pyrazol-4-yl]quinoline-2,4-dicarboxamide]	0.4 nM
COc1ccc(Cn2nc(C)c(NC(=O)c3cc(C(N)=O)nc4cc(F)c(Cl)cc34)c2C)cc1F [Example 237, 6-chloro-7-fluoro-N^4-[1-(3-fluoro-4-methoxybenzyl)-3,5-dimethyl-1H-pyrazol-4-yl]quinoline-2,4-dicarboxamide]	0.4 nM
